The record followed here is PMC6131501, “Urate transporter inhibitor lesinurad is a selective peroxisome proliferator-activated receptor gamma modulator (sPPARγM) in vitro” (Scientific Reports, 2018).

For one data set, the target named is T1, PPARγ (Homo sapiens, UniProt P37231).
T1 construct: expressed in transfected cells; host or cells: HEK293T
T1 sequence (P37231 238-503 limits assumed): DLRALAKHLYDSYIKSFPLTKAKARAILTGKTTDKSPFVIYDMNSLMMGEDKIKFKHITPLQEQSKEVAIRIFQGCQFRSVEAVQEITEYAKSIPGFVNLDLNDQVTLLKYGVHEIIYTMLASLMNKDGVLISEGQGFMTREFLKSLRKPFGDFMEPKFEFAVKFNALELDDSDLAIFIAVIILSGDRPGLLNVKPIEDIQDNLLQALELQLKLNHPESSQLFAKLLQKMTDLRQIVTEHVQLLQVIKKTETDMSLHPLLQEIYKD
The data set is described as follows: Gal4 hybrid reporter gene assay PPARγ. The class given is cell-based. From the text: These in vitro test systems are based on a constitutively expressed hybrid receptor composed of the ligand binding domain of the respective human nuclear receptor and the DNA binding domain of the yeast receptor Gal4. A Gal4-inducible firefly luciferase serves as reporter gene and a constitutively expressed renilla luciferase is used for normalization of transfection efficacy and internal toxicity control[18],[19]. […] The Gal4-fusion receptor plasmids pFA-CMV-hPPARα-LBD[50], pFA-CMV-hPPARγ-LBD[50], pFA-CMV-hPPARδ-LBD[50], pFA-CMV-hLXRα-LBD[51], pFA-CMV-hLXRβ-LBD[51], pFA-CMV-hRXRα-LBD[52], pFA-CMV-hRXRβ-LBD[52], pFA-CMV-hRXRγ-LBD[52], pFA-CMV-hRARα-LBD[52], pFA-CMV-hRARβ-LBD[52], pFA-CMV-hRARγ-LBD[52], pFA-CMV-hFXR-LBD[53], pFA-CMV-hVDR-LBD[52], pFA-CMV-hCAR-LBD[52] and pFA-CMV-hPXR-LBD[52] coding for the hinge region and ligand binding domain (LBD) of the canonical isoform of the respective nuclear receptor have been reported previously. pFR-Luc (Stratagene) was used as reporter plasmid and pRL-SV40 (Promega) for normalization of transfection efficiency and cell growth.
HEK293T cells were grown in DMEM high glucose, supplemented with 10% FCS, sodium pyruvate (1 mM), penicillin (100 U/mL) and streptomycin (100 μg/mL) at 37 °C and 5% CO2. The day before transfection, HEK293T cells were seeded in 96-well plates (3·10^4 cells/well). Before transfection, medium was changed to Opti-MEM without supplements. Transient transfection was carried out using Lipofectamine LTX reagent (Invitrogen) according to the manufacturer’s protocol with pFR-Luc (Stratagene), pRL-SV40 (Promega) and the corresponding Gal4-fusion nuclear receptor plasmid. 5 h after transfection, medium was changed to Opti-MEM supplemented with penicillin (100 U/mL), streptomycin (100 μg/mL), now additionally containing 0.1% DMSO and the respective test compound or 0.1% DMSO alone as untreated control. Each concentration was tested in duplicates and each experiment was repeated independently at least three times. Following overnight (12-14 h) incubation with the test compounds, cells were assayed for luciferase activity using Dual-Glo™ Luciferase Assay System (Promega) according to the manufacturer’s protocol. Luminescence was measured with an Infinite M200 luminometer (Tecan Deutschland GmbH). […] Fold activation was obtained by dividing the mean RLU of a test compound at a respective concentration by the mean RLU of untreated control.
On the technique in general: A reporter such as luciferase makes a cellular process visible.

Data set [1] in a line: Aqueous solubility (noted for ITC). The class given is physicochemical. From the text: To confirm direct modulation of PPARγ by lesinurad, we analyzed their interaction by isothermal titration calorimetry (ITC). Due to limited solubility of lesinurad, recombinant PPARγ ligand binding domain (LBD) protein was (reversely) titrated to the drug.
Data set [2] concerns PPARγ-regulated genes in HepG2 cells. Nature of the data set: PPARγ target gene quantification in HepG2 cells (qPCR). It is filed as cell-based, human. Conditions: HepG2, 30 μM, 8 h; mean ± SEM, n = 4. How it is done:
HepG2 cells were incubated with 1 (30 μM) or 0.1% DMSO as untreated control for 8 h, harvested, washed with cold phosphate-buffered saline (PBS) and then directly used for RNA extraction. 2 μg total RNA were extracted from HepG2 cells by the Total RNA Mini Kit (R6834-02, Omega Bio-Tek, Inc., Norcross, GA, USA). RNA was reverse-transcribed into cDNA using the High-Capacity cDNA Reverse Transcription Kit (4368814, Thermo Fischer Scientific, Inc.) according to the manufacturer’s protocol. PPARγ target gene expression was evaluated by quantitative real time PCR analysis with a StepOnePlus™ System (Life Technologies, Carlsbad, CA, USA) using Power SYBR Green (Life Technologies; 12.5 μL per well). Each sample was set up in duplicates and repeated in four independent experiments. The expression was quantified by the comparative ∆∆Ct method and glycerinaldehyde 3-phosphate dehydrogenase (GAPDH) served as reference gene. The following PCR primers were used: Adiponectin: 5′-TGGCTATGCTCACAGTCTCACATC-3′ (fwd) and 5′-CTCTGTGCCTCTGGTTCCACAA-3′ (rev); ANGPTL4: 5′-ATTCTTTCCAGCGGCTTCTG-3′ (fwd) and 5′-GAG GAC TGG AGA CGC GGA G-3′ (rev); CD36: 5′-GGC TGT GAC CGG AAC TGT G-3′ (fwd) and 5′-AGGTCTCCAACTGGCATTAGAA-3′ (rev); GAPDH: 5′-ATATGATTCCACCCATGGCA-3′ (fwd) and 5′-GATGATGACCCTTTTGGCTC-3′ (rev).
Results (expressed as mean ± SEM % relative mRNA expression to vehicle (0.1% DMSO); n = 4): Adiponectin: 1 (30 μM): 163 ± 41%; ANGPTL4: 1 (30 μM): 298 ± 49%; CD36: 1 (30 μM): 105 ± 16%.
Background: In qPCR the cycle at which signal appears reflects the starting amount.

For the compound `O=C(O)CSc1nnc(Br)n1-c1ccc(C2CC2)c2ccccc12` [lesinurad], the Gal4-PPARγ transactivation entry at PPARγ (30 μM) is “robustly transactivated”. Besides, the EC50 – broadly, the concentration needed to bring the measured effect to its halfway point – at PPARγ (Gal4 hybrid reporter, HEK293T, 12-14 h, mean ± SEM, at least three experiments) is 18.5 ± 0.7 µM. Besides, the aqueous solubility result in data set [1] is recorded as “limited aqueous solubility”. Besides, in data set [2], the “ANGPTL4 relative mRNA expression to vehicle” value came to 298 ± 49%, the “Adiponectin relative mRNA expression to vehicle” value is 163 ± 41% and the “CD36 relative mRNA expression to vehicle” value is 105 ± 16%.
